Results as given in US11072588B2, “Barbituric acid derivatives comprising cationic and lipophilic groups” (UNIVERSITETET I TROMSØ—NORGES ARKTISKE UNIVERSITET, priority 2017, dated 2021).
≈ marks a conversion by molar mass, not a printed value. Read-outs that look alike come from different tables or passages of the source.

Tests used:
[1] = tested on: Corynebacterium glutamicum ATCC 13032; assay: MIC assay, antibiotic susceptible reference strain; assay type: cell-based; details: Corynebacterium glutamicum, ATCC13032, read-out: Antimicrobial activity (MIC) C. g
Description: (§1) Working solutions of the test derivatives were prepared with up to 100% DMSO and stored at −20° C. If necessary, the solutions were heated to 40-80° C. before testing to facilitate complete dissolution. Double-distilled water was used in all dilutions prepared. […] A microdilution susceptibility test was used for MIC determination according to Clinical and Laboratory Standards Institute, “Methods for Dilution Antimicrobial Sisceptibility Tests for Bacteria That Graw Aerobically”, Approved Standard M07-A9, edition 2012, with modifications as described by Igumnova et al (Bioorg Med Chem, 2016, 24 (22), 5884-5894).
(§2) Briefly, the bacterial inoculum was adjusted to approximately 2.5-3×10^4 cells/mL in Mueller-Hinton broth (MHB, Difco Laboratories, USA), and incubated in a ratio of 1:1 with test derivatives in polystyrene 96-well flat-bottom microplates (NUNC, Roskilde, Denmark). Positive growth control (without test derivatives) and negative control (without bacteria) were included. The reference antibiotic was oxytetracycline hydrochloride (Sigma Aldrich, Saint Louis, Mo., USA). The microplates were incubated in an EnVision microplate reader (Perkin-Elmer, Turku, Finland) placed in an incubator set to 35° C. for 48 h. The MIC value was defined as the lowest concentration of derivative resulting in no bacterial growth as determined by OD600 measurement. All derivatives were tested in three parallels.

[2] = tested on: Escherichia coli ATCC 25922; assay: MIC assay, antibiotic susceptible reference strain; assay type: cell-based; details: Escherichia coli, ATCC25922, read-out: Antimicrobial activity (MIC) E. c
Description: as §1, §2

[3] = tested on: Pseudomonas aeruginosa PA01, DSM 19880 (ATCC 15692); assay: MIC assay, antibiotic susceptible reference strain; assay type: cell-based; details: Pseudomonas aeruginosa, read-out: Antimicrobial activity (MIC) P. a
Description: as §1, §2

[4] = tested on: Staphylococcus aureus ATCC 9144; assay: MIC assay, antibiotic susceptible reference strain; assay type: cell-based; details: Staphylococcus aureus, ATCC9144, read-out: Antimicrobial activity (MIC) S. a
Description: as §1, §2

E. faecium 50673722 = assay: MIC, multi-resistant clinical isolate; assay type: cell-based, Enterococcus faecium; details: for MIC: Enterococcus faecium, read-out: Antimicrobial activity (MIC); for selectivity index (EC50/MIC): RBC EC50 / MIC
Description: as §1, §2
(§3) The MIC was determined as explained above with some exceptions; working solutions of test derivatives were prepared from concentrated DMSO stocks stored at room temperature, the density of the bacterial inoculum was increased 40× to 1-1.2×10^6 cells/mL, enterococci were incubated in Brain Heart Infusion broth (BHIB, Difco Laboratories, USA), the microplates were incubated for 24 h, and the derivatives were tested in four parallels.

E. faecium 50758899 = assay: MIC, multi-resistant clinical isolate; assay type: cell-based, Enterococcus faecium; details: for MIC: Enterococcus faecium, read-out: Antimicrobial activity (MIC); for selectivity index (EC50/MIC): RBC EC50 / MIC
Description: as §1, §2, §3

E. faecium 50901530 = assay: MIC, multi-resistant clinical isolate; assay type: cell-based, Enterococcus faecium; details: for MIC: Enterococcus faecium, read-out: Antimicrobial activity (MIC); for selectivity index (EC50/MIC): RBC EC50 / MIC
Description: as §1, §2, §3

E. faecium K36-18 = assay: MIC, multi-resistant clinical isolate; assay type: cell-based, Enterococcus faecium; details: for MIC: Enterococcus faecium, K3618, read-out: Antimicrobial activity (MIC); for selectivity index (EC50/MIC): RBC EC50 / MIC, E. faecium K36-18
Description: as §1, §2, §3

E. coli 50579417 = assay: MIC, multi-resistant clinical isolate; assay type: cell-based, Escherichia coli; details: for MIC: Escherichia coli, read-out: Antimicrobial activity (MIC); for selectivity index (EC50/MIC): RBC EC50 / MIC
Description: as §1, §2, §3

E. coli 50639799 = assay: MIC, multi-resistant clinical isolate; assay type: cell-based, Escherichia coli; details: for MIC: Escherichia coli, read-out: Antimicrobial activity (MIC); for selectivity index (EC50/MIC): RBC EC50 / MIC
Description: as §1, §2, §3

E. coli 50676002 = assay: MIC, multi-resistant clinical isolate; assay type: cell-based, Escherichia coli; details: for MIC: Escherichia coli, 50676002, read-out: Antimicrobial activity (MIC); for selectivity index (EC50/MIC): RBC EC50 / MIC, E. coli 50676002
Description: as §1, §2, §3

E. coli 50739822 = assay: MIC, multi-resistant clinical isolate; assay type: cell-based, Escherichia coli; details: for MIC: Escherichia coli, read-out: Antimicrobial activity (MIC); for selectivity index (EC50/MIC): RBC EC50 / MIC
Description: as §1, §2, §3

E. coli 50857972 = assay: MIC, multi-resistant clinical isolate; assay type: cell-based, Escherichia coli; details: for MIC: Escherichia coli, read-out: Antimicrobial activity (MIC); for selectivity index (EC50/MIC): RBC EC50 / MIC
Description: as §1, §2, §3

A. baumanii K12-21 = assay: MIC, multi-resistant clinical isolate; assay type: cell-based, Acinetobacter baumannii; details: for MIC: Acinetobacter baumannii, K1221, read-out: Antimicrobial activity (MIC); for selectivity index (EC50/MIC): RBC EC50 / MIC
Description: as §1, §2, §3

A. baumanii K55-13 = assay: MIC, multi-resistant clinical isolate; assay type: cell-based, Acinetobacter baumannii; details: for MIC: Acinetobacter baumannii, K5513, read-out: Antimicrobial activity (MIC); for selectivity index (EC50/MIC): RBC EC50 / MIC
Description: as §1, §2, §3

A. baumanii K63-58 = assay: MIC, multi-resistant clinical isolate; assay type: cell-based, Acinetobacter baumannii; details: A. baumanii K63-58, resistant to colistin; for MIC: Acinetobacter baumannii, K6358, 24 h, read-out: Antimicrobial activity (MIC); for selectivity index (EC50/MIC): RBC EC50 / MIC
Description: as §1, §2, §3

S. epidermidis = assay: Anti-biofilm activity (inhibition of biofilm formation); assay type: cell-based; details: Staphylococcus epidermidis, read-out: Anti-biofilm IC50
[5] = tested on: human metastatic melanoma (A2058, ATCC CRL-11147) cells; assay: Anti-cancer activity against A2058 cells; assay type: cell-based; details: A2058, read-out: Anti-cancer IC50
Description: Cytotoxicity of the test compounds was evaluated after 72 hour exposure to human metastatic melanoma (A2058, ATCC CRL-11147) cells.
A2058 cells were grown overnight (2,000 cells/well), and then incubated with the test compounds (range of concentrations) diluted in MEM Earle's supplemented with gentamycin (10 μg/mL), non-essential amino acids (1%), sodium pyruvate (1 mM), L-alanyl-Lglutamine (2 mM), but without FBS (total volume was 100 μl) for […]. Ten μL of CellTiter 96® AQueous One Solution Reagent (Promega, Madison, Wis., USA) was added, and the plates were then further incubated for 1 hour.
Absorbance was measured at 485 nm in a DTX 880 Multimode Detector. Results were calculated as % survival compared to negative (assay media) and positive (Triton X-100; Sigma-Aldrich) controls.

[6] = tested on: panel of 30 multi-resistant clinical isolates of Gram-positive and Gram-negative bacteria; assay: MIC screening, ranges over the panel of clinical isolates; assay type: cell-based
Description: as §1, §2, §3

E. faecium TUH50-22 = assay: MIC, multi-resistant clinical isolate; assay type: cell-based, Enterococcus faecium
Description: as §1, §2, §3

Compound | MIC [1] [µg/mL] | MIC [2] [µg/mL] | MIC [3] [µg/mL] | MIC [4] [µg/mL] | MIC (E. faecium 50673722) [µg/mL] | selectivity index (EC50/MIC) (E. faecium 50673722) | MIC (E. faecium 50758899) [µg/mL] | selectivity index (EC50/MIC) (E. faecium 50758899) | MIC (E. faecium 50901530) [µg/mL] | selectivity index (EC50/MIC) (E. faecium 50901530) | MIC (E. faecium K36-18) [µg/mL] | selectivity index (EC50/MIC) (E. faecium K36-18) | MIC (E. coli 50579417) [µg/mL] | selectivity index (EC50/MIC) (E. coli 50579417) | MIC (E. coli 50639799) [µg/mL] | selectivity index (EC50/MIC) (E. coli 50639799) | MIC (E. coli 50676002) [µg/mL] | selectivity index (EC50/MIC) (E. coli 50676002) | MIC (E. coli 50739822) [µg/mL] | selectivity index (EC50/MIC) (E. coli 50739822) | further results
NCCCCN1C(=O)N(CCCCN)C(=O)C(Cc2cc(Br)cc(Br)c2)(Cc2cc(Br)cc(Br)c2)C1=O [7(ii)] | 1 (≈ 1.31 µM) | 4 (≈ 5.22 µM) | 8 (≈ 10.4 µM) | 4 (≈ 5.22 µM) | 4 (≈ 5.22 µM) | (21) | 4 (≈ 5.22 µM) | (21) | 4 (≈ 5.22 µM) | (21) | 8 (≈ 10.4 µM) | (10) | 8 (≈ 10.4 µM) | (10) | 8 (≈ 10.4 µM) | (10) | 8 (≈ 10.4 µM) | (10) | 8 (≈ 10.4 µM) | (10) | MIC (E. coli 50857972): 8 µg/mL (≈ 10.4 µM); selectivity index (EC50/MIC) (E. coli 50857972): (10); MIC (A. baumanii K12-21): 16 µg/mL (≈ 20.9 µM); selectivity index (EC50/MIC) (A. baumanii K12-21): (5); MIC (A. baumanii K55-13): 16 µg/mL (≈ 20.9 µM); selectivity index (EC50/MIC) (A. baumanii K55-13): (5); MIC (A. baumanii K63-58): 16 µg/mL (≈ 20.9 µM); selectivity index (EC50/MIC) (A. baumanii K63-58): (5); IC50 (S. epidermidis): 6 µg/mL (≈ 7.83 µM); IC50 [5]: 1 µg/mL (≈ 1.31 µM); MIC ([6]; read-out: MIC values against S. aurues, E. faecium and E. coli): 4 to 8 µg/mL (≈ 5.22 to 10.4 µM)
CC(C)(C)c1cc(CC2(Cc3cc(C(C)(C)C)cc(C(C)(C)C)c3)C(=O)N(CCCCN)C(=O)N(CCCCN)C2=O)cc(C(C)(C)C)c1 [7(iii), 1,3-bis(4-aminobutyl)-5,5-bis(3,5-di-tert-butylbenzyl)-pyrimidin-2,4,6(1H,3H,5H)-trione] | 0.25 (≈ 0.37 µM) | 2 (≈ 2.96 µM) | 4 (≈ 5.93 µM) | 1 (≈ 1.48 µM) | 2 (≈ 2.96 µM) | (<2) | 2 (≈ 2.96 µM) | (<2) | 2 (≈ 2.96 µM) | (<2) | 2 (≈ 2.96 µM) | (<2) | 4 (≈ 5.93 µM) | (<1) | 4 (≈ 5.93 µM) | (<1) | 8 (≈ 11.9 µM) | (<0.5 | 4 (≈ 5.93 µM) | (<1) | MIC (E. faecium TUH50-22; Enterococcus faecium, TUH5022, read-out: Antimicrobial activity (MIC)): 2 µg/mL (≈ 2.96 µM); selectivity index (EC50/MIC) (E. faecium TUH50-22; RBC EC50 / MIC): (<2); MIC (E. coli 50857972): 4 µg/mL (≈ 5.93 µM); selectivity index (EC50/MIC) (E. coli 50857972): (<1); MIC (A. baumanii K12-21): 4 µg/mL (≈ 5.93 µM); selectivity index (EC50/MIC) (A. baumanii K12-21): (<1); MIC (A. baumanii K55-13): 4 µg/mL (≈ 5.93 µM); selectivity index (EC50/MIC) (A. baumanii K55-13): (<1); MIC (A. baumanii K63-58): 4 µg/mL (≈ 5.93 µM); selectivity index (EC50/MIC) (A. baumanii K63-58): (<1); IC50 (S. epidermidis): 1 µg/mL (≈ 1.48 µM); IC50 [5]: 1 µg/mL (≈ 1.48 µM); MIC ([6]; read-out: MIC values against all the 30 multi-resistant clinical isolates): 2 to 16 µg/mL (≈ 2.96 to 23.7 µM)
